Results: US20210268030A1, “FIBROADIPOGENIC PROGENITOR-DERIVED EXOSOMES FOR REGENERATION OF DYSTROPHIC MUSCLES” (EXOFIX S.R.L., priority 2018, published 2021)

How the values were obtained:
MuSCs [1] = experiment: Transwell co-culture of FAPs with MuSCs, myogenic differentiation (fusion index); type: cell-based, mdx mice; conditions: FAPs exposed to GW4869 (10 uM) before transwell co-culture
Procedure: MuSCs and FAP cells were co-cultured by using inserts with 1.0 μm porous membrane to avoid direct contact between populations.
Cell culture inserts with 1.0-·m pore (#353102, #353104, Falcon) and 6 or 24 -well culture plates (BD Bioscience) were used for transwell co-culture. Freshly sorted MuSCs were plated in the bottom of the plate, while FAP cells were plated on the upper insert.
To decrease FAP-exosomes release, GW4869 (10 uM, #D1692, Sigma) was added to FAPs culture 30′ before the co-culture setting with MuSCs. To wash away any residual trace of GW4869, FAPs media was refreshed right before co-culture.
For Drosha SiRNA treatments, in vivo TSA treated FAPs on transwell were transfected with commercially available Drosha siRNA using Dharmafect3.0 (Dharmacon) according to manufacturer instructions; after 6 hours FAPs were put in co-culture with MuSCs.
We began to determine the identity of the extracellular mediators of FAP's support to MuSCs in DMD muscles, by performing transwell co-cultures between FAPs isolated from 1.5 month old mdx mice and MuSCs isolated from age-matched mdx mice. In transwell cultures, cells are separated by a membrane of 1 μm pore size that prevents direct cell contact, yet allows reciprocal transfer of soluble mediators of functional interactions between co-cultured cells.

MuSCs [2] = experiment: PKH-67 tracing of exosome transfer from FAPs to MuSCs in transwell co-culture; type: cell-based, mdx mice; conditions: PKH67-labelled FAPs exposed to GW4869
Procedure: To stain FAPs derived exosomes, FAP cells were incubated with the lipidic dye PKH-67 (#P7333, Sigma) according to manufacturer instructions prior to transwell co-culture with MuSCs.
To analyse the capacity of MuSCs to uptake FAP-derived exosomes, we performed a transwell co-culture in which the potential “source” of exosomes—FAPs—was […] prior to transwell co-culture with the “acceptor” cells—MuSCs. […] PKH-67 is incorporated into newly generated exosomes, and therefore traces their passage to acceptor cells.

[3] = test system: MuSCs within single fibres; experiment: Single muscle fibres incubated with FAP conditioned media or exosomes (Pax7, MyoD, EdU); type: cell-based, C57BL6J-WT mice
Procedure: Single fibers were isolated using Pasut (2013) and Moyle's protocol (2014) from tibialis anterior, extensor digitorum longus, gastrocnemius and soleus muscles of C57BL6J-WT mice and cultured in proliferating medium (GM1: DMEM+pyruvate+4.5 g/l glucose+glutamate, 10% horse serum (HS), 0.5% Chicken Embryo Extract) for 24 hours, then exposed for the next 24 hrs to GM1 conditioned media derived from culture of FAPs (MEDIA-FAPs) isolated from young mdx mouse treated for 15 days with vehicle (CTR) or mdx mice treated with TSA (TSA) or media isolated from FAPs CTR and TSA pre-treated with the GW4869 to inhibit exosome biogenesis. In a parallel, independent experiment, single fibers were exposed to exosomes (EXO-FAPs) purified from MEDIA-FAPs and added to GM1 for 24 hours.
In ex-vivo experiments FAP-derived Exosomes (10·g) isolated by TEIR were put in culture with MuSCs or with myofibers in the cell culture media.
To investigate this hypothesis, we evaluated the effect of FAP-derived exosomes from HDACi-treated or control-treated mdx mice on MuSCs within single fibres isolated from WT mice. Freshly isolated single muscle fibres from tibialis anterior, extensor digitorum longus, gastrocnemius and soleus of C57BL6J mice were incubated with FAP-derived exosomes or whole conditioned media, and their effect on MuSCs was evaluated by monitoring the expression of Pax7, MyoD and DNA synthesis (EdU incorporation). In this experimental setting, the uptake of FAP-derived exosomes by MuSCs from single fibers was first confirmed by staining of lipidic dye PKH-67 used on purified vesicles (FIG. 6B).

[4] = test system: animals affected by muscular dystrophy; conditions: in vivo; cited from earlier work
muscles of DMD patients = conditions: phase I/II clinical trial, after one year of treatment; cited from earlier work
preclinical model of DMD = conditions: Colussi et al. 2010; cited from earlier work
[5] = supernatant of FAPs from control-treated mdx mice pre-exposed to GW4869

For O=C(/C=C/c1ccc(/C=C/C(=O)Nc2ccc(C3=NCCN3)cc2)cc1)Nc1ccc(C2=NCCN2)cc1 [GW4869], the “FAP's ability to enhance MuSCs differentiation into multinucleated myotubes” value (MuSCs [1]) was “abrogated”, the “prevention of detection of the PKH-67 signal in MuSCs co-cultured with FAPs” value (MuSCs [2]) was “more than 80%” and the “ability of the whole supernatant to increase all MuSC populations as well as their proliferation” value ([3]; GW4869 treatment of FAPs from TSA-treated mdx mice) was “drastically reduced”. For the same molecule, the “number of Pax7+/MyoD+ MuSCs with high DNA synthesis (Edu+)” value [3, 5] was “not altered” and the “number of quiescent (Pax7+MyoD−) and differentiation-committed (Pax7- MyoD+) MuSCs” value [3, 5] was “drastic reduction”.

For CCN(CC)Cc1ccc2cc(COC(=O)Nc3ccc(C(=O)NO)cc3)ccc2c1 [Givinostat], the “activity in the treatment of animals affected by muscular dystrophy” value (“activity in the treatment” for short) [4] is listed as “active” and the “histology of the muscles of DMD patients” value (muscles of DMD patients) is listed as “positively affect”.

For Nc1ccccc1NC(=O)c1ccc(CNC(=O)OCc2cccnc2)cc1 [MS-275], the “activity in the treatment” value [4] is given as “active”.

For O=C(CCCCCCC(=O)Nc1ccccc1)NO [Vorinostat], the “activity in the treatment” value [4] is listed as “active” and the dose response curve (preclinical model of DMD) is listed as “bell-shaped”.
